Results reported in BindingDB's records for doi:10.1021/jm00072a017 (Farmitalia Carlo Erba, 1993).

molecular target: T1, Thromboxane-A synthase (Rattus norvegicus, UniProt P49430); experiment: ChEBML_213089
T1 sequence (P49430 whole entry): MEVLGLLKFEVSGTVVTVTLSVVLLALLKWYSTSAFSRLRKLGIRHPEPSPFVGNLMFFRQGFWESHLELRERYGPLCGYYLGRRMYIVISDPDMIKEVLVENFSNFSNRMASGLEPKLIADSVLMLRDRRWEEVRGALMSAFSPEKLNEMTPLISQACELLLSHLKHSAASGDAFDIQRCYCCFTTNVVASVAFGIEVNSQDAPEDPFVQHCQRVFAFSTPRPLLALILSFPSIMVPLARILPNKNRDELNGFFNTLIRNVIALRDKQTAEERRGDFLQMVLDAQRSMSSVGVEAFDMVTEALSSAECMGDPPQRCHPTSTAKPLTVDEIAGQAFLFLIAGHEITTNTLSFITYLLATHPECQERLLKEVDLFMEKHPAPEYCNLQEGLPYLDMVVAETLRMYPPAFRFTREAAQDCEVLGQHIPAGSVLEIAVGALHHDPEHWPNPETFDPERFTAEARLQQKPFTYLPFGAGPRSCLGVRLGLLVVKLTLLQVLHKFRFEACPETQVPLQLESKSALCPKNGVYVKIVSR
Source text: In vitro inhibition of thromboxane B2 production in rat whole blood.

IC50, > 1000 nM:
CC1=NC(C)=C(C(=O)OCC(C)C)C(c2cccc(-c3cccnc3)c2)C1C(=O)OCC(C)C (stereo unspecified) [2,6-Dimethyl-4-(3-pyridin-3-yl-phenyl)-1,4-dihydro-pyridine-3,5-dicarboxylic acid diisobutyl ester], CCOC(=O)C1C(C)=NC(C)=C(C(=O)OCCN(C)Cc2ccccc2)C1c1cccc(-c2cccnc2)c1 (stereo unspecified) [2,6-Dimethyl-4-(3-pyridin-3-yl-phenyl)-1,4-dihydro-pyridine-3,5-dicarboxylic acid 3-[2-(benzyl-methyl-amino)-ethyl] ester 5-ethyl ester], CCOC(=O)C1=C(C)N=C(C)C(C(=O)OCC)C1c1ccccc1-n1ccnc1 (stereo unspecified) [4-(2-Imidazol-1-yl-phenyl)-2,6-dimethyl-1,4-dihydro-pyridine-3,5-dicarboxylic acid diethyl ester], CCOC(=O)C1=C(C)N=C(C)C(C(=O)O)C1c1cccc(-n2ccnc2)c1 (stereo unspecified) [4-(3-Imidazol-1-yl-phenyl)-2,6-dimethyl-1,4-dihydro-pyridine-3,5-dicarboxylic acid monoethyl ester], CCOC(=O)C1=C(C)N=C(C)C(C(=O)OCC)C1c1ccc(-n2ccnc2)cc1 (stereo unspecified) [4-(4-Imidazol-1-yl-phenyl)-2,6-dimethyl-1,4-dihydro-pyridine-3,5-dicarboxylic acid diethyl ester], CCOC(=O)C1=C(CC)N=C(CC)C(C(=O)OCC)C1c1cccc(-n2ccnc2)c1 (stereo unspecified) [2,6-Diethyl-4-(3-imidazol-1-yl-phenyl)-1,4-dihydro-pyridine-3,5-dicarboxylic acid diethyl ester]
